Results: patent publication US12594258B2, “Inhibitors of MHC-I Nef downmodulation for treating HIV” (priority 2019, dated 2026)
Entries after “also recorded” stand apart in the source; their conditions may differ. Like-named read-outs stand apart in the source and are kept apart here.

Legend:
[1] = test system: HIV Nef
[2] = test system: lysosomal pH in human monocyte-derive macrophages (MDMs); experiment: Lysosensor Yellow/Blue dextran analysis of lysosomal pH in MDMs; format: cell-based
Protocol: To measure the lysosomal pH in human monocyte-derive macrophages (MDMs), MDMs adhered to 24-well plates were exposed to 500 μg/mL Lysosensor Yellow/Blue dextran, 10,000 MW (ThermoFisher, L22460) in R10 for 24 hours. MDMs were then exposed to plecomacrolides for 1 hour and harvested with 0.05% Trypsin-EDTA (Gibco 25300054). Cells were washed twice in FACS buffer, and analyzed on a MoFlo Astrios flow cytometer, with blue signal excited from a 354 nm laser and yellow signal excited from a 405 nm laser. A standard curve was generated by resuspending MDMs in equilibration buffers of known pH as previously described. The ratio of blue:yellow fluorescence intensity was calculated for each cell, the median blue:yellow ratio for the cell population for each condition was obtained, and the lysosomal pH in MDMs was calculated for each condition using the standard curve.
Lysosensor Yellow/Blue Dextran Analysis of Lysosomal pH. To measure the lysosomal pH in human MDMs, MDMs adhered to 24-well plates were exposed to 500 μg/mL Lysosensor Yellow/Blue dextran, 10,000 molecular weight (MVV) in R10 for 24 h. MDMs were then exposed to plecomacrolides for 1 h and harvested with 0.05% Trypsin-(ethylenedinitrilo)tetraacetic acid (EDTA). Cells were washed twice in FACS buffer, and analyzed on a flow cytometer, with blue signal excited from a 354-nm laser and yellow signal excited from a 405-nm laser. A standard curve was generated by resuspending MDMs in equilibration buffers of known pH. The ratio of blue:yellow fluorescence intensity was calculated for each cell, the median blue:yellow ratio for the cell population for each condition was obtained, and the lysosomal pH in MDMs was calculated for each condition using the standard curve.

[3] = test system: primary CD4+ T cells; experiment: MTT and flow cytometric viability assays in primary CD4+ T cells; format: cell-based, human; conditions: Nef activity 24 hours, viability 72 hours
Protocol: CD4^+ T cells were plated at a density of 1×10^5 cells in 200 μL R10-50 in flat-bottom 96-well plates 4 days post-stimulation with PHA. Cells were exposed to titrations of plecomacrolides or solvent controls for 72 hours in culture, at which point viability was assessed relative to solvent by MTT assay in experimental duplicates. Equal volumes of cell culture medium containing CD4^+ T cells were pelleted in 96-well round-bottom plates and incubated in 4.5 mg/mL MTT (Fisher, M6494) in R10 with no Phenol Red at 37° C. until the purple formazan signal was clearly visible. The absorbance of cell pellets resuspended in DMSO was measured at 595 nm on a Molecular Devices Emax precision microplate reader and compared a standard curve of known viable cell numbers to ensure the experimental samples fell within the linear range of the assay.

[4] = test system: HIV Nef; remark: listed apart in the source

Row | SMILES | level of MHC-I restoration compared to CMA [1] | restoration of MHC-I ([1]; 24 hours post-treatment) | restoration of MHC-I to the surface of Nef-expressing cells ([1]; 48 hours of exposure) | concentration required for restoration of MHC-I compared to CMA ([1]; higher than CMA) | neutralization of lysosomal pH [2] | EC50 ([2]; 1 hour, read-out: EC50 for lysosome neutralization) [nM] | reduction of Nef-dependent HLA-A2 downmodulation ([1]; primary T cells transduced with ΔGPE) [fold] | EC50 ([1]; read-out: EC50 for Nef inhibition, HIV-infected primary CD4+ T cells, HLA-A2) [nM] | difference between the 50% effective and toxic concentrations (EC50 and TC50) [3] [fold] | reduction of Nef-dependent HLA-A2 downmodulation [4]
1 | CC[C@H](C)C(=O)O[C@H]1C[C@@H](C)C=C2C=C[C@H](C)[C@H](CC[C@@H]3C[C@@H](O)CC(=O)O3)[C@H]21 [lovastatin, Lovastatin] | a fraction of the levels achieved by CMA; also recorded: did not achieve comparable levels | little restoration of MHC-I | partially restore MHC-I | 2,000 fold |  |  |  |  |  | 
2 | CO/C1=C\C(C)=C\[C@@H](C)[C@@H](O)[C@@H](C)C/C(C)=C/C=C/[C@H](OC)[C@@H]([C@@H](C)[C@@H](O)[C@H](C)[C@@]2(O)C[C@@H](O)[C@H](C)[C@@H](C(C)C)O2)OC1=O [Baf A1] |  |  |  |  | completely neutralize lysosomal pH | […] | […] | […] | […] | over ten-fold
